The data set is described as follows: molar enthalpy of vaporization or sublimation. To be noted: 298.15 K; Crystal; Static calorimetry.

Numbers after ± are expanded uncertainties.

With `OCCc1c[nH]c2ccccc12` [2-(1H-indol-3-yl)ethanol], the molar enthalpy turned out to be 28.6 ± 0.598 kcal/mol.

These data come from the NIST ThermoML archive (doi:10.1016/j.tca.2019.01.021).
